Measurements from patent US10226462B2, “Detection and treatment of excessive hair shedding” (Samson Clinical Pty Ltd, priority 2014, dated 2019).

Key:
telogen effluvium = conditions: treatments commonly used for AGA; cited from earlier work
Monilethrix = test: Oral minoxidil in two cases of monilethrix
Protocol: Patient 6: A person presented with lifelong fragile, sparse, and thin hair. […] Comorbidities included Crohn's disease and impaired hearing. Their child and two sons had also been diagnosed with monilethrix and suffered from sparse and fragile hair. […] As the application of topical minoxidil could potentially accentuate breakage of fragile hairs, treatment was commenced with oral minoxidil 0.25 mg daily.
Patient 7: A person with fragile, thin and sparse hair since childhood secondary to monilethrix presented for assessment and treatment. […] As the application of topical minoxidil could potentially accentuate breakage of fragile hairs oral Minoxidil 0.25 mg daily was commenced.

[1] = system: chronic telogen effluvium; test: Once daily oral minoxidil in women with chronic telogen effluvium (CTE), hair shedding score and safety; conditions: for Mean HSS: 36 women, oral 0.5-2.5 mg daily, baseline 5.63; for Reduction in mean HSS: p<0.001
Protocol: The goals of this study were to review the use of oral minoxidil in CTE with respect to the response to hair shedding and safety. Hair shedding was assessed by patient self-reported Hair shedding Scores (HSS) using the visual analogue scale as described in Example 1 and FIG. 1. Hair Shedding Scores (HSS) were on the scale of 1 to 6 (6 being the highest level of hair shedding). Patients included in this study were women with a diagnosis of CTE based on >6 month history of increased telogen hair shedding, a HSS of 4-6, no visible mid frontal scalp hair loss (Sinclair stage 1) and no hair follicle miniaturization on scalp biopsy.
Data pertaining to dosage of oral minoxidil, previous treatments including topical minoxidil use, blood pressure, side effects, hypertrichosis and trichodynia were collected for each patient. Patient-reported responses were based on a visual analogue scale HSS at each consultation. The HSS prior to starting oral minoxidil, and scores at 6 and 12 months were extracted for analysis. Patients were treated with a once daily oral minoxidil (0.5 to 2.5 mg).
Data were analysed using Matlab R2014b statistical software. Hair shedding scores at baseline, 6 and 12 months were analysed using the Wilcoxon rank sum test for pair-wise comparisons. Differences in blood pressure at baseline and 6 months were also analysed using Wilcoxon rank sum test. Relationship between outcomes (HSS at six and 12 months) and individual patient specific variables including previous use of […], duration of disease, dosage and HSS at baseline were analysed using a generalised linear regression model.

[2] = system: bitemporal hair loss in female pattern hair loss; test: Oral minoxidil 0.25 mg daily in women with bitemporal recession in female pattern hair loss; assay type: in vivo, human; conditions: for Hair shedding (HSS stage): baseline stage 6
[3] = system: androgenetic alopecia (male pattern hair loss); test: Pilot open study of oral minoxidil 0.25 mg once daily for 24 weeks in men with AGA; assay type: in vivo, human; conditions: 0.25 mg daily
Protocol: This study was a pilot, prospective, open, observational study conducted at the Sinclair Dermatology Clinic in Melbourne, Australia. Participants were dosed for 24 weeks. Treatment naïve men with Hamilton Norwood staged III vertex, IV or V were treated for 24 weeks with minoxidil 0.25 mg once daily. The primary efficacy endpoint was investigators' photographic assessment at week 24 and adverse events. Investigator photographic assessment was conducted by a single investigator grading the photographs using a 3 point rating scale, ranging from “decreased hair growth” to “increased hair growth,” centred at no change. Any reports of adverse events were collected at every visit.

In the case of `CC(=O)O[C@]1(C(C)=O)CC[C@H]2[C@@H]3C=C(Cl)C4=CC(=O)[C@@H]5C[C@@H]5[C@]4(C)[C@H]3CC[C@@]21C` [cyproterone acetate], the “Efficacy in TE” value (telogen effluvium) is listed as “do not work”.
In the case of `CC(C)(C)NC(=O)[C@H]1CC[C@H]2[C@@H]3CC[C@H]4NC(=O)C=C[C@]4(C)[C@H]3CC[C@]12C` [finasteride], the “Efficacy in TE” value (telogen effluvium) is given as “do not work”.
In the case of `Nc1cc(N2CCCCC2)nc(N)[n+]1[O-]` [minoxidil], the Side effects (Monilethrix; Patient 6, oral 0.25 mg daily) was “did not experience any side effects or complication”, the Tolerability (Monilethrix; low doses, oral) was “well tolerated” and the “Patients in whom the HSS improved” value ([1]; after 6 months, of 36) was 31. The “Patients in whom the HSS remained the same” value ([1]; after 6 months, of 36) was 4, the “Mean HSS” value ([1]; at 6 months) was 3.9 and the “Mean HSS” value ([1]; at 12 months) was 3.05. For the same molecule, the “Patients in whom the HSS increased” value ([1]; at the 6-month mark, of 36) was 1, the “Patients improved from baseline” value ([1]; at the 12 month mark, of 36) was 33 and the “Reduction in mean HSS” value ([1]; baseline to 6 months) was 1.7. For the same molecule, the “Reduction in mean HSS” value ([1]; baseline to 12 months) was 2.58, the “Mean reduction in HSS” value ([1]; between 6 months and 12 months, p=0.003) was 0.89 and the “Lowest blood pressure recorded” value ([1]; in vivo) was 90/70. For the same molecule, the “Mean change in blood pressure, diastolic” value ([1]; in vivo) was “plus 2.1 mmHg”, the “Mean change in blood pressure, systolic” value ([1]; in vivo) was “minus 0.5 mmHg” and the “Mean dose in patient group with hypertrichosis (Yes)” value ([1]; in vivo) was 1.46 mg. For the same molecule, the “Mean dose in patient group with trichodynia (Yes)” value ([1]; in vivo) was 1.19 mg, the “Mean dose in patient group without hypertrichosis (No)” value ([1]; in vivo) was 0.99 mg and the “Mean dose in patient group without trichodynia (No)” value ([1]; in vivo) was 1.11 mg. The “Patients who developed ankle oedema” value ([1]; of 36) was “One”, the “Patients who developed any blood test abnormalities” value ([1]; of 36) was “No patients” and the “Women who developed facial hypertrichosis” value ([1]; of 36) was “Thirteen”. The “Patients who developed transient postural dizziness” value ([1]; of 36, resolved with continued treatment) was “Two”, the “Difference between blood pressure at baseline and 6 months” value ([1]; p>0.05) was “no significant differences” and the “Mean reduction in HSS” value ([1]; patients who had not used topical minoxidil, at 12 months) was 2.32. The “Mean reduction in HSS” value ([1]; patients who had not used topical minoxidil, at six months) was 1.56, the “Mean reduction in HSS” value ([1]; patients who had previously used topical minoxidil, at 12 months) was 3.18 and the “Mean reduction in HSS” value ([1]; patients who had previously used topical minoxidil, at six months) was 2. For the same molecule, the Side-effects ([2]; Patient 8) was “no side-effects”, the “Hair shedding (HSS stage)” value ([2]; Patient 8, 0.25 mg, review at 3 months) was 5 and the Blood pressure ([2]; Patient 8, review at 3 months, baseline 110/70) was 115/65. For the same molecule, the Facial hypertrichosis ([2]; Patient 8, review at 3 months, present at baseline) was “unaltered”, the “Side effects or complications of treatment” value ([2]; Patient 9) was “not experienced any side effects or complications” and the “Hair shedding (HSS stage)” value ([2]; Patient 9, 0.25 mg once daily with continued spironolactone 100 mg daily, review at 6 weeks) was 4. The Blood pressure ([2]; Patient 9, review at 6 weeks, baseline 140/85) was 125/85, the Tolerability ([3]; patients with MPHL) was “well tolerated” and the Adverse events ([3]; six men, 24 weeks) was “No adverse events”.
For `CC(=O)S[C@@H]1CC2=CC(=O)CC[C@]2(C)[C@H]2CC[C@@]3(C)[C@@H](CC[C@@]34CCC(=O)O4)[C@H]12` [spironolactone], the “Efficacy in TE” value (telogen effluvium) is listed as “do not work”.
